# Source: patent US20250262241A1, “METHODS TO IMPROVE STABILITY OF VIRUS TRANSDUCTION OF y8 T CELLS AND APPLICATIONS THEREOF” (UNICET BIOTECH CO. LLC., priority 2021, published 2025)
# Values joined by “and” are separate entries in the source; they are usually repeats but may differ in a detail not shown here. Equal values may be shown once.
# Legend:
# γδ2 T cells [1] = test: Lentivirus (GFP) transduction of γδ2 T cells with or without BX795; type: cell-based, human
# Description: (§1) VSV-G pseudotyped lentiviral vectors were applied in this method. 1×10^7 293T cells were plated into a poly-D-lysine coated 100 mm dish. Next day the cells were transfected with 6 μg of pCDH-EF1-MCS-T2A-copGFP plasmid (Addgene, Plasmid #72263) or pCDH-EF1-CAR-T2A-copGFP plasmid modified from pCDH-EF1-MCS-T2A-copGFP, 4 μg of pspAx2 (Addgene, Plasmid #12260), 2 μg of pCMV-VSV-G (Addgene, Plasmid #8454) using 30 ug PEI transfection regents. After 8 hours of transfection, the cell culture medium was changed. The supernatant were collected 48 hours and 72 hours later. Concentrated the virus with Lenti-X™ Concentrator (Takara) and monitored the virus titers by transduction of 293T cells and stored the concentrated virus in −80° C. until further use.
# (§2) For lentivirus transduction, 1×10^CFU lentivirus diluted in 200 ul PBS were added in a 24-well plate which were pre-coated with RetroNectin reagent (Takara) and centrifugated by 2,000 g for 2 hours at 32° C. After centrifugation, removed the supernatant and washed the plate with PBS three times slightly.
# (§3) The plates were incubated at 37° C., 5% CO2.
# (§4) After incubation, washed the cells with FACS buffer two times and then resuspended the cells in 200 ul FACS buffer and calculated the data by FACSCalibur (BD Biosciences). The antibodies used for γδ2 T cells were: APC anti-human CD3 (Biolegend, 300412), BV421 anti-human TCR Vδ2 (Biolegend, 331428).
# [2] = tested on: γδ T cell products cultured from PBMC; type: cell-based, human; conditions: 0.6 μM BX795, after 12 Days in vitro culture
# Description: (§5) Wash the cells once with PBS and then staining the cells with antibodies diluted in FACS buffer (PBS+1% FBS+2.5 mM EDTA) at 4° C. for 30 min. The common volume of incubated buffer was 50 μL for 2×10^cells.
# as §4
# The calculated cell types included γδ2 T, γδ2 CD56+ T, γδ1 T, αβT, NKT, T helper, cytotoxic T, B and NK cells.
# γδ2 T cells [3] = test: Differentiation of γδ2 T cells cultured with/without BX795 (flow cytometry); type: cell-based, human
# Description: as §5, §4
# On the other hand, the terminator γδ2 T cell percentage decreased from 2.595% to around 2%.
# γδ2 T cells [4] = test: Exhausted marker expression of γδ2 T cells cultured with/without BX795; type: cell-based, human
# Description: as §5, §4
# γδ2 T cells [5] = test: CAR (B7H3) related lentivirus transduction of γδ2 T cells with small inhibitors: transduction rate; type: cell-based, human; conditions: 0.6 uM, day 10; control below 10%
# Description: as §1, §2
# For the virus transduction of γδ2 T cells, seeded 1×10^PBMCs which were in vitro cultured after 48 hours in the γδ2 T cell culture medium mentioned above (Gibco serum free medium with rhIL-2 and ZOL). Added or not small inhibitors and mixed well and concentrated the cells by 800 g for 10 mins at 32° C. The plates were incubated at 37° C., 5% CO2. Discarded the small inhibitors regent by changing the cell culture medium 24 hours later.
# Calculate the cell number by an automated cell counter and the transduction rate (GFP positive rate) was analyzed by flow cytometry every 2 to 3 days. The transduction rate was monitored in the gate of γδ2 or γδ1 T cells.
# γδ1 T cells = test: CAR related lentivirus transduction of γδ1 T cells with small inhibitors; type: cell-based, human; conditions: 0.06 uM; control finally around 2%
# Description: as §2, §3
# To test the application of these small molecule on improving the transduction rate of δδ1 T cells. We evaluated the transduction rate of δδ1 T cells with/without different dosage of small molecules.
# PDK1 = target: T1, PDK1 (Homo sapiens, UniProt O15530); conditions: cited from earlier work
# T1 sequence (O15530 1-556): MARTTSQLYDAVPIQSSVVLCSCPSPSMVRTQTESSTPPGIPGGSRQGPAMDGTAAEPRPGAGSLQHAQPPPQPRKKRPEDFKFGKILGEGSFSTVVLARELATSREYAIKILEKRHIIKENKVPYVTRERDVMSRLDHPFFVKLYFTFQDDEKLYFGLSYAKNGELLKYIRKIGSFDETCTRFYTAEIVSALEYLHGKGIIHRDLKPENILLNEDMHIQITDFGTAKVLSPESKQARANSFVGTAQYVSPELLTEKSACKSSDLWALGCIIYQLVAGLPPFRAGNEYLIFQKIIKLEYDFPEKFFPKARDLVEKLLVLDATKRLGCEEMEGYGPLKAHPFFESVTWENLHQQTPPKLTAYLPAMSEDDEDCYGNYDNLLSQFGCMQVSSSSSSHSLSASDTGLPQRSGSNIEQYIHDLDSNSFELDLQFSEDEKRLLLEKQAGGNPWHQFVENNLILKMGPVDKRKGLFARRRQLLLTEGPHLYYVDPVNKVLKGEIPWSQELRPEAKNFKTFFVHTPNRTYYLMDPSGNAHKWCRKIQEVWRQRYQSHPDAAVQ
substance,measurement,setting,value
BX795,total positive transduced γδ2 T cells,γδ2 T cells [1]; 0.2 μM or 0.6 μM BX795,greatly increased
same,"final transduction rate, 2 μM compared with 0.6 μM BX795",γδ2 T cells [1]; 2 μM BX795,not significant
same,cell number of transduced γδ2 T cells,"γδ2 T cells [1]; 2 μM or 6 μM BX795, vs control group",lower than the control group
same,"B cell (CO3−TCRVδ2−CD19+), cell percentage of total lymphocytes",[2],0.27% and 0.32%
same,"NK cell (CD3−TCRVδ2−CD56+), cell percentage of total lymphocytes",[2],2.66% and 2.20%
same,"NKT cell (CD3+TCRVδ2−TCRVδ1−TCRαβ+CD56+), cell percentage of total lymphocytes",[2],0.34% and 0.31%
same,"T helper cell (CD3+TCRVδ2−TCRVδ1− TCRαβ+CD56−CD8−CD4+), cell percentage of total lymphocytes",[2],5.26% and 5.40%
same,cell types of the final γδ T cell products vs control group,[2],comparable cell types with the control group
same,"αβ T cell (CD3+TCRVδ2−TCRVδ1−TCRαβ+), cell percentage of total lymphocytes",[2],7.22% and 7.20%
same,"γδ2 CD56+ T cell (CD3+TCRVδ2+ CD56+), cell percentage of total lymphocytes",[2],1.89% and 1.69%
same,"γδ2 T cell (CD3+TCRVδ2+), cell percentage of total lymphocytes",[2],85.93% and 86.52%
same,changes in differentiation of γδ2 T cell subtypes,γδ2 T cells [3]; BX795 treatment vs control,No significant changes were found
same,central memory γδ2 T cells percentage rate,"γδ2 T cells [3]; adding BX795, control 1.865%",4.225%
same,terminator γδ2 T cell percentage,"γδ2 T cells [3]; adding BX795, control 2.595%",around 2%
same,"Central memory γδ2 cell (CD3+TCRVδ2+ CD27+CD45RA−), cell percentage of total lymphocytes",γδ2 T cells [3]; cultured with BX795,3.88% and 4.57%
same,"Effector γδ2 T cell (CD3+TCRVδ2+ CD27−CD45RA−), cell percentage of total lymphocytes",γδ2 T cells [3]; cultured with BX795,81.23% and 80.00%
same,"Terminator γδ2 T cell (CD3+TCRVδ2+ CD27−CD45RA+), cell percentage of total lymphocytes",γδ2 T cells [3]; cultured with BX795,1.91% and 2.03%
same,"naive γδ2 T cell (CD3+TCRVδ2+ CD27+CD45RA+), cell percentage of total lymphocytes",γδ2 T cells [3]; cultured with BX795,0.25% and 0.10%
same,"γδ2 CD226+T cell (CD3+TCRVδ2+CD226+), cell percentage of total lymphocytes",γδ2 T cells [3]; cultured with BX795,87.25% and 86.59%
same,"γδ2 NKG2D+T cell (CD3+TCRVδ2+NKG2D+), cell percentage of total lymphocytes",γδ2 T cells [3]; cultured with BX795,87.17% and 86.50%
same,"γδ2 T cell (CD3+TCRVδ2+), cell percentage of total lymphocytes",γδ2 T cells [3]; cultured with BX795,87.25% and 86.68%
same,"cell percentage of exhausted cell types (PD-1, LAG-3, TIGIT, TIM-3)",γδ2 T cells [4]; BX795 treatment vs control,improved the cell percentage of all the exhausted cell types slightly
same,"γδ2 LAG-3+ T cell (CD3+TCRVδ2+LAG-3+), cell percentage of total lymphocytes",γδ2 T cells [4]; cultured with BX795,85.58% and 85.77%
same,"γδ2 PD-1+ T cell (CD3+TCRVδ2+PD-1+), cell percentage of total lymphocytes",γδ2 T cells [4]; cultured with BX795,11.83% and 11.17%
same,"γδ2 T cell (CD3+TCRVδ2+), cell percentage of total lymphocytes",γδ2 T cells [4]; cultured with BX795,85.75% and 85.94%
same,"γδ2 TIGIT+ T cell (CD3+TCRVδ2+TIGIT+), cell percentage of total lymphocytes",γδ2 T cells [4]; cultured with BX795,23.24% and 26.98%
same,"γδ2 TIM-3+ T cell (CD3+TCRVδ2+TIM-3+), cell percentage of total lymphocytes",γδ2 T cells [4]; cultured with BX795,84.55% and 84.91%
same,transduction rate,γδ2 T cells [5],around 40%
same,effect on transduction rate of γδ1 T cells,γδ1 T cells,could improve the transduction rate
same,IC50,PDK1,6 nM
